The values that follow are results of earlier work, collected in patent publication US20130122120A1, “INSECTICIDAL COMPOSITIONS AND METHODS” (priority 2011, published 2013).

The test system of one data set is aphids. The following applies: nymphs and adults.
The conditions of data set [1]: applied directly to skin or consumed.

For `CCCCCCCCCCCCOS(=O)(=O)[O-].[Na+]` [Sodium lauryl sulfate, Sodium dodecyl sulfate], under “at the CMC”, the aggregation number entry is listed as “about 62”. For the same compound, under “pure water at 25° C.”, the “critical micelle concentration (CMC)” value is 8.2 mM. Further, the efficacy against aphids entry in the data set with aphids is reported as “some limited efficacy for treating aphids, killing the nymphs, but merely delays death in adults”. For the same compound, the “Ames (bacterial mutation) test result” value in the data set on bacterial mutation is reported as “negative”. For the same compound, the carcinogenicity entry in data set [1] was “not carcinogenic”.
